The text below walks through data of ChEMBL document CHEMBL3774354, “Discovery of Selective Histone Deacetylase 6 Inhibitors Using the Quinazoline as the Cap for the Treatment of Cancer” (J Med Chem, 2016).

The target in one data set is Histone deacetylase 1 (Homo sapiens, UniProt Q13547).
Data set [1] deals with T1, Protein deacetylase HDAC6 (Homo sapiens, UniProt Q9UBN7).
T1 sequence (Q9UBN7 whole entry): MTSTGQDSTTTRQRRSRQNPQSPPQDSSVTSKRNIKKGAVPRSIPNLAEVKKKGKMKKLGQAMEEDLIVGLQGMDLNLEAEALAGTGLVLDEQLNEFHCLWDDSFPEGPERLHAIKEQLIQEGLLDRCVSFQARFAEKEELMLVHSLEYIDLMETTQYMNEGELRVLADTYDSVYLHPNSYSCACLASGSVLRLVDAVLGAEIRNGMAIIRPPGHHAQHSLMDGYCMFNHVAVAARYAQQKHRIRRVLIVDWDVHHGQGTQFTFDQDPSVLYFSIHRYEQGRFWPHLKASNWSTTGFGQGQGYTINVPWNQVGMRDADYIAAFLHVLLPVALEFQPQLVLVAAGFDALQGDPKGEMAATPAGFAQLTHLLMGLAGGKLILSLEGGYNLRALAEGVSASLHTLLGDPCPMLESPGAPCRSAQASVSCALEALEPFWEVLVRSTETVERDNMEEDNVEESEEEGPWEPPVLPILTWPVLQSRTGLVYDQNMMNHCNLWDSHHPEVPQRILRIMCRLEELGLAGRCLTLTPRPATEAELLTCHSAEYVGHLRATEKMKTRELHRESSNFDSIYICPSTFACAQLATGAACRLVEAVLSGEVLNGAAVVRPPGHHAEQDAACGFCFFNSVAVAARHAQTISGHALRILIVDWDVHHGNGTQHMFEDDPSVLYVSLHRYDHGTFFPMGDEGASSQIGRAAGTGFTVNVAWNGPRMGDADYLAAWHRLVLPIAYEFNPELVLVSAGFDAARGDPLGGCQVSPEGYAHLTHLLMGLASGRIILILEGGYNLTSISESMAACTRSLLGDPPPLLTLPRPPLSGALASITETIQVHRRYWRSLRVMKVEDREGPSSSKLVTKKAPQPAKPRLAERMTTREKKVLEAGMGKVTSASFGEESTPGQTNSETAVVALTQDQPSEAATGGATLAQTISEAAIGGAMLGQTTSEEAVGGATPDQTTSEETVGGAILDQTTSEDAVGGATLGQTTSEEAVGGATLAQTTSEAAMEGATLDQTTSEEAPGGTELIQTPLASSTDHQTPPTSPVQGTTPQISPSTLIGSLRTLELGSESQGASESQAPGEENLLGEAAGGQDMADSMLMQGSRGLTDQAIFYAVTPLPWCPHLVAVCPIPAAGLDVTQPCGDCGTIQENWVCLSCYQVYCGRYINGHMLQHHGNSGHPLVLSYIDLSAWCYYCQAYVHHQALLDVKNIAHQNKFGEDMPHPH
Description: Inhibition of human recombinant HDAC6 using AMC labeled AC-peptide as substrate incubated for 1 hr by fluorescence analysis

Another data set addresses T2, Histone deacetylase 8 (Homo sapiens, UniProt Q9BY41).
T2 sequence (Q9BY41 whole entry): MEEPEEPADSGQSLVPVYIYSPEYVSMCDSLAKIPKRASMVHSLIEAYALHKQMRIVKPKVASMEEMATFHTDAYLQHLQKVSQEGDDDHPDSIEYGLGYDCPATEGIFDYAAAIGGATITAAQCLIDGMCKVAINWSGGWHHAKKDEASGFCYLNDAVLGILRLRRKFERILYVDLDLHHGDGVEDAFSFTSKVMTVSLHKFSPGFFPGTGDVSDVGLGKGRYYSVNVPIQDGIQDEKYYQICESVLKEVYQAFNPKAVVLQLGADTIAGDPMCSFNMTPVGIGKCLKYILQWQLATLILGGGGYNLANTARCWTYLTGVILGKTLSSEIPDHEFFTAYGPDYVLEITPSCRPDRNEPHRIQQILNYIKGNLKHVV

Data set [2] deals with Ramos. Put plainly: Antitumor activity against human Ramos cells xenografted in NOD/SCID mouse assessed as tumor mass change at 10 mg/kg, ip q2d for 6 days. The format is functional. (In general: In xenograft studies the graft and the host belong to different species.)
For data set [3], the system named is Mus musculus. As to the kind of experiment: Toxicity in NOD/SCID mouse xenografted with human Ramos cells assessed as change in body weight at 10 mg/kg, ip q2d for 6 days. The following applies: in vivo, 144 h.
Data set [4] relates to Mus musculus. Put plainly: Toxicity in NOD/SCID mouse xenografted with human Ramos cells assessed as death at 40 mg/kg, po q2d for 6 days. The format is organism-based. The note with it: in vivo, 144 h.
The target in data set [5] is T3, Protein deacetylase HDAC6 (Homo sapiens) (UniProt Q9UBN7).
T3 sequence (whole entry): T1 sequence (Q9UBN7 whole entry)
As to the kind of experiment: Inhibition of HDAC6 in human MV4-11 cells assessed as upregulation of alpha- tubulin acetylation after 6 hrs by Western blot analysis. The format is cell-based. (In western blotting, separated proteins are transferred to a membrane and probed.)

The target in data set [6] is T3, Protein deacetylase HDAC6 (Homo sapiens). Put plainly: Inhibition of HDAC6 in human HCT116 cells assessed as upregulation of alpha- tubulin acetylation after 6 hrs by Western blot analysis. The note with it: HCT-116. In kind it is cell-based.
The test system of data set [7] is HeLa. As to the kind of experiment: Antiproliferative activity against human HeLa cells after 72 hrs by MTT assay. The format is functional, cell-based.
The target in the next data set is Histone deacetylase 5 (Homo sapiens, UniProt Q9UQL6). Put plainly: Inhibition of recombinant HDAC5 (unknown origin) using AMC labeled AC-peptide as substrate at 10 uM incubated for 1 hr by fluorescence analysis.
Sequence of Histone deacetylase 5 (Q9UQL6 whole entry): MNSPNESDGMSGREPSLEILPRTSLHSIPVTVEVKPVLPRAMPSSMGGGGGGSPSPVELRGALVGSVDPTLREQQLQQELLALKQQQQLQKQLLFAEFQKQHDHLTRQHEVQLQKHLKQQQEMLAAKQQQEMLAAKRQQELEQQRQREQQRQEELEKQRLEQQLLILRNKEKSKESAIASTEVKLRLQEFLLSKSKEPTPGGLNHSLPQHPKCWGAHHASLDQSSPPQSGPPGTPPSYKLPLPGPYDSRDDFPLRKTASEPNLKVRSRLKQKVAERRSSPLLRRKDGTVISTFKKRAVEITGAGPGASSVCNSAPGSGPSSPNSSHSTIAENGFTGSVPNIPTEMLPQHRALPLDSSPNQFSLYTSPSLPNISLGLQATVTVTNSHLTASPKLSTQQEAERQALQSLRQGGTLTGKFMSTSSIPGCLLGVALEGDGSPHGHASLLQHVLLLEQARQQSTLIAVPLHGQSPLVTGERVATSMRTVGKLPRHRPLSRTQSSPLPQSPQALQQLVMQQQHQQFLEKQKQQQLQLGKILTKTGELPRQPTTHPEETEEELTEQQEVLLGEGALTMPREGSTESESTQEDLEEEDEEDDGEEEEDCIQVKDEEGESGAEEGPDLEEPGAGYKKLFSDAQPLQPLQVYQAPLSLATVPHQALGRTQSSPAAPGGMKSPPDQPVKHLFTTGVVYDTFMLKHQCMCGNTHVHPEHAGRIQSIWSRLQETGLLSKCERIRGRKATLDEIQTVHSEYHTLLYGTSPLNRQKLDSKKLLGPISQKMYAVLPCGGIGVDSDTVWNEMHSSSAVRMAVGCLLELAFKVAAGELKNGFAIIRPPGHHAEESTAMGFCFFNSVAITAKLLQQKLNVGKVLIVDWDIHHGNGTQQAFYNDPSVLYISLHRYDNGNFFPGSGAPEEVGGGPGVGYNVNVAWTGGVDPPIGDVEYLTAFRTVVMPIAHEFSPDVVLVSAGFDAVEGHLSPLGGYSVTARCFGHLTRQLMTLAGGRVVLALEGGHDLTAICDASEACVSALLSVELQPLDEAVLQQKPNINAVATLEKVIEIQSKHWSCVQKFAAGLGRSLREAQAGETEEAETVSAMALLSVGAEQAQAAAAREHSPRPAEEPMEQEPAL
Data set [8] deals with Histone deacetylase 7 (Homo sapiens) (UniProt Q8WUI4). As to the kind of experiment: Inhibition of recombinant HDAC7 (unknown origin) using AMC labeled AC-peptide as substrate at 10 uM incubated for 1 hr by fluorescence analysis.
Sequence of Histone deacetylase 7 (Homo sapiens) (Q8WUI4 whole entry): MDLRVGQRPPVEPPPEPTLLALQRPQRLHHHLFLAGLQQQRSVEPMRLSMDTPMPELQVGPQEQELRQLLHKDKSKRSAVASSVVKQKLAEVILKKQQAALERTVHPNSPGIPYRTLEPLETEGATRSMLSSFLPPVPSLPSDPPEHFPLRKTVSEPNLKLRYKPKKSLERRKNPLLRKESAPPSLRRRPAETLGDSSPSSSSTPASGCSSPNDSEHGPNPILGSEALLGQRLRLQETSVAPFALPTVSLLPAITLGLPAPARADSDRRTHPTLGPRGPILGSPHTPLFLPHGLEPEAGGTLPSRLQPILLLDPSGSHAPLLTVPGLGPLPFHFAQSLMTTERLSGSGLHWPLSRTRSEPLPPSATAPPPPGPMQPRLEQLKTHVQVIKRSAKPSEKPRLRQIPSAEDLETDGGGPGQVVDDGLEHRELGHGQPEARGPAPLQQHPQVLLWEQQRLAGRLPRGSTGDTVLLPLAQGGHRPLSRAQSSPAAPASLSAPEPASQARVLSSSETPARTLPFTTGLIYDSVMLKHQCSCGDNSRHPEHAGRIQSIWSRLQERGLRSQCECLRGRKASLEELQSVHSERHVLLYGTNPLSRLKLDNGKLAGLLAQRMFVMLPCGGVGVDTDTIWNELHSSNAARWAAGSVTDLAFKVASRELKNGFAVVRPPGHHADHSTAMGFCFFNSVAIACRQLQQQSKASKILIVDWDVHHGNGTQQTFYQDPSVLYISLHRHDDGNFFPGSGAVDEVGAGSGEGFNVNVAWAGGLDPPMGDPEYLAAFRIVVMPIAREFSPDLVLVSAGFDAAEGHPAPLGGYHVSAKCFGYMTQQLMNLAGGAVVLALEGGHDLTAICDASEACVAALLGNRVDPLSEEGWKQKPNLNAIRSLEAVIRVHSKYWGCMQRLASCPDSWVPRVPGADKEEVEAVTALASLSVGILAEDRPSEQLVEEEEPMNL
The target in another data set is Histone deacetylase 9 (Homo sapiens, UniProt Q9UKV0). Put plainly: Inhibition of recombinant HDAC9 (unknown origin) using AMC labeled AC-peptide as substrate at 10 uM incubated for 1 hr by fluorescence analysis.
Sequence of Histone deacetylase 9 (Q9UKV0 whole entry): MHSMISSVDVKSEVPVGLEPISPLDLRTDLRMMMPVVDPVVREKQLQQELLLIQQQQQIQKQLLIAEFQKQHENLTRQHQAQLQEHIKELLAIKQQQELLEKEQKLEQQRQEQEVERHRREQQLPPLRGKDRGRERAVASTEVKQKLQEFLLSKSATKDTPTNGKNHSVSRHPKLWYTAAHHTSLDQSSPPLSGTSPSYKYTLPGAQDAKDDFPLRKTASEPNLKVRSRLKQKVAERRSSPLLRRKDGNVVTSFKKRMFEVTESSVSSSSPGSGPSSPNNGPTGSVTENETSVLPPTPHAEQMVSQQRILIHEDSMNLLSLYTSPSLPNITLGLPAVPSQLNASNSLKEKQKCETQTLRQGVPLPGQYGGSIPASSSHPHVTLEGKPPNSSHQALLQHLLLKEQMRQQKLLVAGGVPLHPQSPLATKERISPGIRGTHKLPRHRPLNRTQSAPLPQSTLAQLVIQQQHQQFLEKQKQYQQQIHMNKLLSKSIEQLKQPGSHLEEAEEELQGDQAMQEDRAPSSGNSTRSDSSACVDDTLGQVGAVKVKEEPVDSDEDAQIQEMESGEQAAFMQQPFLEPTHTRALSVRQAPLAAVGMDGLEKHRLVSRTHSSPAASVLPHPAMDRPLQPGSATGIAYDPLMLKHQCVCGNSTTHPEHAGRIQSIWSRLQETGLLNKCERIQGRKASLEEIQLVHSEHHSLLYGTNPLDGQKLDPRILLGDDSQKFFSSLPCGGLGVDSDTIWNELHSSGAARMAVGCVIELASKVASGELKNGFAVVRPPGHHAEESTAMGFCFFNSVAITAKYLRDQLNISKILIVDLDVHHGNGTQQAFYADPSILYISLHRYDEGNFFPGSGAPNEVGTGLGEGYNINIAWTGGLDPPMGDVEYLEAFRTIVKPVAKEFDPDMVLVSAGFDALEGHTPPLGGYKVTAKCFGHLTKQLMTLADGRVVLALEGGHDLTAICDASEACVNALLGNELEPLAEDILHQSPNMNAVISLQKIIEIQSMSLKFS
Data set [9] has as its target Histone deacetylase 11 (Homo sapiens) (UniProt Q96DB2). Put plainly: Inhibition of recombinant HDAC11 (unknown origin) using AMC labeled AC-peptide as substrate at 10 uM incubated for 1 hr by fluorescence analysis.
Data set [10] in a line: Cytotoxicity against human U266 cells after 72 hrs by MTT assay. The format is functional, cell-based. The note with it: U-266, 72 h. On the technique in general: Tetrazolium dyes change colour on reduction, which living cells bring about.
A short description of data set [11]: Cytotoxicity against human RPMI8226 cells after 72 hrs by MTT assay. In kind it is functional, cell-based. The note with it: RPMI-8226, 72 h.
A further data set relates to MV4-11. Put plainly: Cytotoxicity against human MV4-11 cells after 72 hrs by MTT assay. The format is functional, cell-based. The following applies: MV4-11, 72 h.
The next data set concerns K562. Put plainly: Cytotoxicity against human K562 cells after 72 hrs by MTT assay. In kind it is functional, cell-based. The note with it: K562, 72 h.
For data set [12], the system named is Ramos. As to the kind of experiment: Cytotoxicity against human Ramos cells after 72 hrs by MTT assay. In kind it is functional, cell-based.
The subject of another data set is A2780. Put plainly: Cytotoxicity against human A2780 cells after 72 hrs by MTT assay. The format is functional, cell-based. The following applies: A2780, 72 h.
The nature of data set [13]: Cytotoxicity against human SKOV3 cells after 72 hrs by MTT assay. The note with it: SK-OV-3, 72 h. The format is functional, cell-based.
Data set [14] is described as follows: Cytotoxicity against human SKBR3 cells after 72 hrs by MTT assay. In kind it is functional, cell-based. The following applies: SK-BR-3, 72 h.
Another data set concerns HepG2. Put plainly: Cytotoxicity against human HepG2 cells after 72 hrs by MTT assay. In kind it is functional, cell-based. The following applies: HepG2, 72 h.
A short description of data set [15]: Cytotoxicity against human H460 cells after 72 hrs by MTT assay. In kind it is functional, cell-based. The following applies: NCI-H460, 72 h.
For a further data set, the system named is A549. As to the kind of experiment: Cytotoxicity against human A549 cells after 72 hrs by MTT assay. In kind it is functional, cell-based. The following applies: A549, 72 h.
Data set [16] in a line: Cytotoxicity against human HCT116 cells after 72 hrs by MTT assay. The format is functional, cell-based. The following applies: HCT-116, 72 h.
The next data set has as its system HT-29. As to the kind of experiment: Cytotoxicity against human HT-29 cells after 72 hrs by MTT assay. In kind it is functional, cell-based. The note with it: HT-29, 72 h.
The target in data set [17] is Histone deacetylase 1/2/3 (Homo sapiens) (UniProt Q13547+O15379+Q92769). The note with it: MV4-11, 1000 nM.
Description: Inhibition of HDAC1/2/3 in human MV4-11 cells assessed as upregulation of histone H3 acetylation at 1000 nM after 6 hrs by Western blot analysis
The target in data set [18] is T1, Protein deacetylase HDAC6. As to the kind of experiment: Inhibition of HDAC6 in human HeLa cells assessed as induction of tubulin acetylation incubated for 6 hrs by cytoblot assay. In kind it is cell-based.
Data set [19] deals with HeLa. Put plainly: Induction of histone H3 acetylation in human HeLa cells incubated for 6 hrs by cytoblot assay. The format is functional, cell-based.
For another data set, the system named is A-375. Put plainly: Antiproliferative activity against human A375 cells after 72 hrs by MTT assay. In kind it is functional, cell-based. The note with it: A-375, 72 h.

SMILES strings stand for the structures. Activity calls are given as the source filed them. The calls are words filed in the database; no cut-off is given here.

Sequence of Histone deacetylase 1 (Q13547 whole entry): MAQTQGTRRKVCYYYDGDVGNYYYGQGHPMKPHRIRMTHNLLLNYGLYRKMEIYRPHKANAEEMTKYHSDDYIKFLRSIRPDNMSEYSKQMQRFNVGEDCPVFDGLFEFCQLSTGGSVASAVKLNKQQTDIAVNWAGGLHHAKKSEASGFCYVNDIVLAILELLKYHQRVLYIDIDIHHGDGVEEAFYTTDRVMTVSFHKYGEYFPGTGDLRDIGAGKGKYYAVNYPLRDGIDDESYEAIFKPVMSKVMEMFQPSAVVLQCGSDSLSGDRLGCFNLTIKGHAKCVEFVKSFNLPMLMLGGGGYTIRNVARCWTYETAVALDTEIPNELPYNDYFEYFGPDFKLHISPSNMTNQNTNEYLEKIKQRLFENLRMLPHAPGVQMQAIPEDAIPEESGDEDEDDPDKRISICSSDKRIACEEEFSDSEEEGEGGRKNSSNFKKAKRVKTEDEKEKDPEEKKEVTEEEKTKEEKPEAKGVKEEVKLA
Sequence of Histone deacetylase 11 (Homo sapiens) (Q96DB2 whole entry): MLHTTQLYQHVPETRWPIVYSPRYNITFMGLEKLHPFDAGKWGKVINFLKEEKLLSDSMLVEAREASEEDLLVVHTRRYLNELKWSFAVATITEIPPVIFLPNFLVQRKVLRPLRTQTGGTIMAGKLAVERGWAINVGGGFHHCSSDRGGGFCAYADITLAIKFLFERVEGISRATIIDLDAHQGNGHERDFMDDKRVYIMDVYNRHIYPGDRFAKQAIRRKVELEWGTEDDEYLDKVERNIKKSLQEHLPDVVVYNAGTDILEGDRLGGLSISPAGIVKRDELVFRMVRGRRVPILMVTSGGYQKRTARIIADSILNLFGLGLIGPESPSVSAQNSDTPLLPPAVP
Description for Histone deacetylase 8: Inhibition of human recombinant HDAC8 using AMC labeled AC-peptide as substrate incubated for 1 hr by fluorescence analysis

The term IC50 denotes the concentration at which inhibition is half-maximal. For the molecule `Cc1nc2c(c(N(C)c3ccc(OCCCCC(=O)NO)cc3)n1)CCC2`, the IC50 on Histone deacetylase 1 is 212 nM; in data set [1] it was 63 nM; on Histone deacetylase 8, 1990 nM.

Take `Cc1nc2c(c(N(C)c3ccc(OCCCCCC(=O)NO)cc3)n1)CCC2`: the half-inhibitory concentration (IC50) against Histone deacetylase 1 came out at 120 nM; in data set [1] it was 20 nM; at Histone deacetylase 8, 1000 nM.

On to `Cc1[nH]c2ccccc2c1CCNCc1ccc(/C=C/C(=O)NO)cc1` [PANOBINOSTAT], for which the Activity in the data set on Ramos [2] was 16.6%; with Mus musculus [3], -1.9%.

`O=C(CCCCCCNC(=O)c1cnc(N(c2ccccc2)c2ccccc2)nc1)NO` [RICOLINOSTAT]: the Activity entry with Mus musculus [4] was “Non-toxic”. In addition, the inhibition entry in [5] and in [6] was “Dose-dependent effect” each time. Moreover, the IC50 was > 5000 nM in the data set with HeLa [7]; > 5000 nM in [10]; 1470 nM in data set [11]; > 5000 nM in the data set on MV4-11; > 5000 nM with K562; > 5000 nM with Ramos [12]. The IC50 (in the data set with A2780; in data set [13]; in data set [14]; in the data set with HepG2; in data set [15]; in the data set on A549) was > 5000 nM throughout. Also, the half-inhibitory concentration (IC50) (in data set [16]; in the data set on HT-29) was > 5000 nM throughout. Further, the inhibition entry (at Histone deacetylase 5; in [8]; at Histone deacetylase 9; in [9]) was “inactive” in each case. Besides, the inhibition result in data set [17] was “Active”.

As to `Cc1nc(N(C)c2cccc(OCCCCC(=O)NO)c2)c2ccccc2n1`, the results for the half-maximal inhibitory concentration (IC50) (at Histone deacetylase 1; in [1]; against Histone deacetylase 8) were 306 nM, > 1000 nM and > 1000 nM, respectively.

For orientation: EC50 means the concentration that produces a half-maximal response. Consider `Cc1nc2c(c(N(C)c3ccc(OCC(=O)NO)cc3)n1)CCC2`, for which the EC50 in data set [18] was 50.8 nM; in the data set with HeLa [19], 1770 nM. Further, the IC50 with A-375 is 2850 nM; with HeLa [7] it was 2220 nM; against Histone deacetylase 1, 264 nM; in data set [1], 17 nM; at Histone deacetylase 8, 2970 nM.

Regarding `Cc1nc(N(C)c2ccc(OCCCCC(=O)NO)cc2)c2ccccc2n1`, the concentration for half-maximal inhibition (IC50) on Histone deacetylase 1 amounted to 204 nM.

Turning to `COc1ccc(N(C)c2nc(C)nc3ccccc23)cc1OCCCCCC(=O)NO`, the IC50 worked out at 160 nM on Histone deacetylase 1, 23 nM in data set [1] and 1530 nM at Histone deacetylase 8.

Regarding `COc1ccc(N(C)c2nc(C)nc3ccccc23)cc1OCCCCC(=O)NO`, the concentration for half-maximal inhibition (IC50) was determined as 253 nM at Histone deacetylase 1 and 111 nM in [1].
